Results as given in patent publication US20050049278A1, “Benzo[1,3]dioxole compounds, pharmaceutical compositions thereof, and processes of making and using the same” (priority 2003, published 2005).
Where two headings read alike, the source gives them in different places.

Assays:
[1] = system: Swiss 3T3 non-dividing fibroblast; experiment: Cell viability (cell proliferation assay), non-dividing Swiss 3T3; assay type: cell-based, mouse
Experimental: (§1) HEK293 cells were seeded into each well of a 96-well plate (5000 cells/well) and incubated overnight to allow the cells to attach. The culture media was removed and replaced with 100 μl of phenol red-free media containing the compounds 5a, 5a,b, and 9a at various concentrations. The cells were allowed to grow in the presence of the compounds for 48 hrs. At the end of the treatment, 20 μl of CellTiter 96 Aqueous One Solution reagent was added directly into each well, and the cells were incubated at 37° C. for 2 hrs. This reagent converts to a form that absorbs light at 490 nm by living cells. Thus, absorbance at 490 nm is proportional to the number of viable cells. The 490 nm absorbance was measured on a BioRad plate reader. Control wells containing no cells were included in this assay to correct for background absorbance.
(§2) The effect of compound 9a on the viability of cancer cell lines as well as dividing and non-dividing mouse Swiss3T3 cells was studied.
(§3) In particular, the cell proliferation assay, as described in Example 15, was used to test the effect of a 48 to 72 hr exposure of these cell lines to compound 9a at various concentrations.

HL-60 (leukemia) = experiment: Cell viability (cell proliferation assay), HL-60; assay type: cell-based; conditions: Homo sapiens, 48 to 72 hr exposure
Experimental: as §1, §2, §3

[2] = system: HT29 (colorectal adenocarcinoma); experiment: Cell viability (cell proliferation assay), HT29; assay type: cell-based; conditions: Homo sapiens, HT-29, 48 to 72 hr exposure
Experimental: as §1, §2, §3

[3] = system: Swiss 3T3 dividing fibroblast; experiment: Cell viability (cell proliferation assay), dividing Swiss 3T3; assay type: cell-based; conditions: Mus musculus, 48 to 72 hr exposure
Experimental: as §1, §2, §3

[4] = system: SW480 (colorectal adenocarcinoma); experiment: Cell viability (cell proliferation assay), SW480; assay type: cell-based; conditions: Homo sapiens, 48 to 72 hr exposure
Experimental: as §1, §2, §3

[5] = system: HTS-tubulin (90% tubulin plus 10% microtubule associated proteins); experiment: Microtubule polymerization assay (turbidity at 340 nm); assay type: biochemical; conditions: absorbance at 340 nm, 30 minutes, 37° C., FIG. 3
Experimental: Microtubule polymerization assays were performed to determine if compounds, such as compound 9a, cause G2/M cell cycle arrest by affecting microtubule dynamics. A microtubule polymerization assay was performed that takes advantage of the observation that there is an increase in turbidity that can be measured at 340 nm as tubulin heterodimers polymerize to form microtubules. In brief, HTS-tubulin (90% tubulin plus 10% microtubule associated proteins; Cytoskeleton Inc., Denver, Colo.) was resuspended in G-PEM buffer (80 mM Pipes, pH 6.9; 2 mM MgCl2; 0.5 mM EDTA; 1 mM GTP) to 10 mg/ml. This suspension was clarified by centrifugation for 10 min. at 225,000×g. The supernatant was then diluted with G-PEM buffer to 2 mg/ml and 100 μl of this solution was added to the appropriate number of ½-area wells in a 96-well format (Corning). Each compound (10 μl of a 10× final concentration in 10% DMSO) was added to the wells in duplicate and immediately put into a pre-warmed (37° C.) Spectromax 190 plate reader. The absorbance was read at 340 nm immediately (time=0) and every minute thereafter for 30 minutes.
The tubulin mix was incubated in the presence of paclitaxel (a microtubule stabilizing agent), nocodazole (a microtubule destabilizing agent), vehicle control (DMSO), or varying concentrations of compound 9a (FIG. 3).

[6] = system: OVCAR-4 (ovarian adenocarcinoma); experiment: Cell viability (cell proliferation assay), OVCAR-4; assay type: cell-based; conditions: Homo sapiens, 48 to 72 hr exposure
Experimental: as §1, §2, §3

[7] = system: HCT15 (colorectal adenocarcinoma); experiment: Cell viability (cell proliferation assay), HCT15; assay type: cell-based; conditions: Homo sapiens, HCT-15, 48 to 72 hr exposure
Experimental: as §1, §2, §3

HEK293 cells [8] = experiment: HEK293 cell viability, CellTiter 96 Aqueous One Solution Cell Proliferation assay; assay type: cell-based; conditions: Homo sapiens, HEK293, 48 h, read-out: EC50
Experimental: as §1, with “The effect of various doses of compounds 5a, 5a,b, and 9a on the viability of HEK293 cells was examined using the CellTiter 96 Aqueous One Solution Cell Proliferation assay (Promega). The HEK293 cells were cultured in DMEM media (Cellgro) or phenol red-free DMEM (Gibco) supplemented with 10% Fetal Bovine Serum (Tissue Culture Biologicals) and 1× Penicillin/Streptomycin/Glutamine (Gibco). The cells were grown at 37° C. with 5% CO2. HEK293” for “HEK293”

HEK293 cells [9] = experiment: Cell cycle analysis by FACS of HEK293 cells; assay type: cell-based
Experimental: Fluorescence-activated cell sorting (FACS) analysis was used to examine the cell cycle state when the cells were incubated with compounds of formula (I) as well as several control compounds, including DMSO, noscapine (a known G2/M inhibitor), and colchicine (a known G2/M inhibitor).
In particular, HEK293 cells were cultured in DMEM media (Celigro) supplemented with 10% Fetal Bovine Serum (Tissue Culture Biologicals) and 1× Penicillin/Streptomycin/Glutamine (Gibco). The cells were grown at 37° C. with 5% CO2, plated in six-well plates at 2.5×10^6 cells/well, and treated for 16 to 24 hrs with the compounds at the concentrations shown in Table 1, below. The cells were then triturated off the bottom of the wells, washed 1× with PBS, then fixed with 70% ethanol, and stored at 4° C. before staining and FACS analysis.
The DNA content of cells was determined using a FacsVantage SE flow cytometry system (Becton Dickinson, San Jose, Calif.) and a Cellular DNA Flow Cytometric Analysis Kit (Roche Applied Science, Indianapolis, Ind.). Cell cycle analysis was performed using Cylchred 1.0.2 software.

U937 (lymphoma) = experiment: Cell viability (cell proliferation assay), U937; assay type: cell-based; conditions: Homo sapiens, U-937, 48 to 72 hr exposure
Experimental: as §1, §2, §3

H4 (glioma) = experiment: Cell viability (cell proliferation assay), H4; assay type: cell-based; conditions: 48 to 72 hr exposure
Experimental: as §1, §2, §3

[10] = system: A549 (non-small cell lung carcinoma); experiment: Cell viability (cell proliferation assay), A549; assay type: cell-based; conditions: Homo sapiens, 48 to 72 hr exposure
Experimental: as §1, §2, §3

[11] = system: NCl/ADR (breast adenocarcinoma); experiment: Cell viability (cell proliferation assay), NCl/ADR; assay type: cell-based; conditions: 48 to 72 hr exposure
Experimental: as §1, §2, §3

[12] = system: HeLa (cervical adenocarcinoma); experiment: Cell viability (cell proliferation assay), HeLa; assay type: cell-based; conditions: Homo sapiens, 48 to 72 hr exposure
Experimental: as §1, §2, §3

[13] = system: HOP-18 (non-small cell lung carcinoma); experiment: Cell viability (cell proliferation assay), HOP-18; assay type: cell-based; conditions: Homo sapiens, 48 to 72 hr exposure
Experimental: as §1, §2, §3

[14] = system: PC3 (prostate adenocarcinoma); experiment: Cell viability (cell proliferation assay), PC3; assay type: cell-based; conditions: 48 to 72 hr exposure
Experimental: as §1, §2, §3

[15] = HEK293, 0.1 μM, treated 16 to 24 hrs

SMILES: COc1ccc2c(c1N)C(=O)O[C@@H]2[C@H]1c2c(cc3c(c2OC)OCO3)CCN1C [Compound 9a, 7-amino-6-methoxy-3-(4-methoxy-6-methyl-5,6,7,8-tetrahydro-[1,3]dioxolo[4,5-g]isoquinolin-5-yl)-3H-isobenzofuran-1-one]
- EC50 ([1]; Mus musculus, Swiss 3T3 non-dividing fibroblast, 48 to 72 hr exposure): > 50000 nM
- effect on viability ([1]; non-dividing Swiss 3T3 fibroblasts, even at 50 μM): no effect was observed
- EC50 (HL-60 (leukemia)): < 50 nM
- EC50 [2]: < 100 nM
- EC50 [3]: < 100 nM
- EC50 [4]: < 100 nM
- effect on microtubule polymerization [5]: dose-dependent decrease of microtubule polymerization
- EC50 [6]: < 100 nM
- EC50 [7]: < 100 nM
- EC50 (HEK293 cells [8]): < 50 nM
- EC50 (HEK293 cells [8]; text summary): < 1000 nM
- Percent of Cells in G1 (HEK293 cells [9]; [15]): 1%
- Percent of Cells in G2/M (HEK293 cells [9]; [15]): 92.1%
- Percent of Cells in S (HEK293 cells [9]; [15]): 6.9%
- concentration at which activity was observed (HEK293 cells [9]; HEK293, G2/M accumulation): 0.1 µM
- accumulation of cells in G2/M (HEK293 cells [9]; HEK293, concentrations as in Table 1): ~90%
- EC50 (U937 (lymphoma)): < 50 nM
- EC50 (H4 (glioma)): < 50 nM
- EC50 [10]: < 100 nM
- EC50 [11]: < 50 nM
- EC50 [12]: < 50 nM
- EC50 [13]: < 100 nM
- EC50 [14]: < 100 nM
